From patent US20220387620A1, “NANOSTRUCTURED DRUG DELIVERY SYSTEM AS A MULTIFUNCTIONAL PLATFORM FOR THERAPY” (priority 2019, published 2022)

Tests used:
[1] = test system: U-87 MG cells; experiment: Resazurin cell viability / cytotoxicity assay; format: cell-based, human; details: free drug
Experimental: Regarding cell viability, U-87 MG cells were cultured in DMEM/F-12 medium, supplemented with 10% (v/v) FBS, 1% (v/v) penicillin-streptomycin solution and sodium bicarbonate. Cells were maintained at 37° C. in a humidified atmosphere containing CO2 (5%). The resazurin assay was used to determine the cytotoxicity of NLCs. Briefly, 2000 cells per well were seeded in a 96 well plate and incubated for 24 h or 72 h after the medium was replaced with increasing concentrations of free drugs or NLCs. Subsequently, the medium was removed and the cell viability determined. For this purpose, 100 μL of 10% (w/v) resazurin solution in DMEM/F 12 was added to the cells and incubated for approximately 2 h, at 37° C. The enzymatic reduction of resazurin to resorufin was analyzed by UV/Vis spectrophotometry at 570 nm and 600 nm. Cell viability was assessed indirectly according to equation 1.

[2] = test system: human blood; experiment: In vitro hemolytic activity (NCL ITA-1 protocol); format: cell-based; details: positive control, 3 h at 37° C.
Text: The haemolytic behaviour of NLCs formulations was explored following the Nanotechnology Characterization Lab (NCL) protocol for analysis of Haemolytic Properties of Nanoparticles (NCL ITA-1 Version 1.2), with slight modifications. Briefly, fresh human blood was drawn from healthy participants in the Laboratory of Clinical Analysis of the Faculty of Pharmacy of the University of Coimbra, after a written informed consent was obtained from all individuals. The venous blood, collected in heparinised vacutainer tubes, was properly diluted in PBS to final a concentration of 10 mg/mL of total blood haemoglobin, and incubated with the NLCs at eight different concentrations, regarding ATO content for 3 h at 37° C. Aqueous and acetate buffered polysorbate 80 solutions were also tested in 15 and 100 μg/mL. PBS and Triton™ X-100 were used as negative and positive controls, respectively, with additional no-blood controls being used due to possible interference of CUR at 540 nm. Following incubation, cell-free supernatants were obtained and any plasma-free haemoglobin and metabolites were converted into cyanmethaemoglobin (CMH), using Drabkin's reagent. The detection of CMH was conducted at 540 nm and the percentage of haemolysis (%) was calculated taking into account the equation 2.

## CC(C)c1c(C(=O)Nc2ccccc2)c(-c2ccccc2)c(-c2ccc(F)cc2)n1CC[C@@H](O)C[C@@H](O)CC(=O)O [ATO, atorvastatin calcium]
[1]; 24 h of incubation
  IC50: 134 ± 27 µM
[1]; 72 h of incubation
  IC50: 25 ± 5 µM

## COc1cc(/C=C/C(=O)CC(=O)/C=C/c2ccc(O)c(OC)c2)ccc1O [CUR, curcumin]
[1]; Homo sapiens, U-87 MG, 24 h of incubation
  IC50: 86 ± 35 µM
[1]; Homo sapiens, U-87 MG, 72 h of incubation
  IC50: 77 ± 1 µM

## Triton™ X-100
[2]
  hemolysis: complete hemolysis
